According to PubChem BioAssay AID449762 (Southern Research Specialized Biocontainment Screening …, 2010):
Results filed as inconclusive are left out.

System: M. tuberculosis H37Rv growth inhibition, 7H9 media
Experiment: M. tuberculosis growth inhibition, HTS (AID 449762);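 further: bacterial growth assessed after seven days of incubation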
Settings: for IC90: measured here: IC90 growth inhibition

| SMILES | IC50 [µM] | IC90 [µM] |
| --- | --- | --- |
| CCn1c(=O)c(CCC(=O)N2CCN(c3ccccn3)CC2)c(C)c2c(C)nn(-c3cccc(C)c3)c21 | 19.5 | 27.5 |
| CCOC(=O)/C(=N/Nc1ccc(OC)cc1)N1CCCc2ccccc21 | 78.1 | > 100 |
| CCCCN(C)S(=O)(=O)c1ccc(C(=O)Nc2nnc(-c3ccco3)o2)cc1 | 8.02 | 21.2 |
| c1ccc(CN2CCN(c3nc(NCc4ccco4)c4ccccc4n3)CC2)cc1 | 18.1 | 23.8 |
| COc1ccc(-c2cn3cc([N+](=O)[O-])ccc3n2)cc1OC | 17.8 | > 100 |
| O=C(NCC(c1cccs1)N1CCOCC1)c1cc([N+](=O)[O-])cc([N+](=O)[O-])c1 (stereo not drawn) | 0.72 | 0.81 |
| CCCCCCCC(=O)N/N=C(/C)c1c(O)cc(C)oc1=O | – | > 100 |
| COC1=CC(=O)c2ccccc2C1=O | 16 | 21.9 |
| Cc1cccc(-c2oc3ccc(-c4ccc5c(c4)OCO5)cc3c2C#Cc2cncn2C)c1 | 2.9 | 3.36 |
| CN1CCN(c2c(F)cc3c(=O)c(C(=O)O)cn4c3c2OCN4C)CC1 | 0.72 | 0.8 |
| CC1(c2ccc(Cl)c(Cl)c2)NC(=S)N2C1NC(=S)N2c1ccccc1 (stereo not drawn) | – | > 100 |
| COc1cc2cc(C(c3nnnn3C(C)(C)C)N3CCc4ccccc43)c(=O)[nH]c2cc1OC (stereo not drawn) | 97.4 | > 100 |
| CCCn1c(Nc2nc3ccccc3n2C)nc2ccccc21 | 83 | 88.7 |
| Cc1cc(C2N=C(N)Nc3nc4ccccc4n32)c(C)n1-c1ccccc1Cl (stereo not drawn) | 12.1 | 16.6 |
| Cc1cc2oc3ccc(NCCCn4ccnc4)cc3c(=O)c2cc1C | 18.2 | 27.5 |
| Cc1ccccc1NC(=O)Cc1nc(COC(=O)/C=C/c2ccccc2)cs1 | 40.3 | 63 |
| Cc1nc(Nc2ccc(Cl)c(Cl)c2)sc1C(=O)Nc1ccccc1 | 19.2 | > 100 |

| SMILES | IC50 [µM] | IC90 [µM] |
| --- | --- | --- |
| CN(C)CCOc1ccc(-c2c(-c3ccsc3)sc3ccccc23)cc1 | 13.2 | 15.5 |
| CCc1ccc(-c2nn(-c3ccccc3)cc2CSC(=N)N)cc1 | 17.5 | 22.4 |
| COc1ccc2[nH]c3c(C)c4ccncc4c(C)c3c2c1 | 0.89 | 2.68 |
| COc1ccccc1C(=O)NC(=S)/C=C1/N(C)c2ccccc2C1(C)C | 34.4 | 43.9 |
| O=C(OCn1ncc(Br)c(Br)c1=O)c1ccc(F)cc1 | 1.17 | 3.58 |
| CNC[C@@H](Cc1ccccc1)NC[C@@H](CC1CCCCC1)NCCCc1ccccc1 | 7.96 | 9.49 |
| C/C(=N\NC(=O)c1cc2c(s1)CCC(C)C2)c1ccncc1 (stereo not drawn) | – | > 100 |
| CCCCCCCCn1cnc2c(N)c(C)c(C)cc21 | 37.4 | 60 |
| O=C(/C=C\c1cccs1)N1CCN(Cc2ccc3c(c2)OCO3)CC1 | 1.48 | 5.53 |
| CN1CC=C(/C=C/c2ccc(-c3ccccc3)cc2)CC1 | 20.1 | 26.9 |
| c1cc2c3c(cccc3c1)NC1(CCC3(CC1)Nc1cccc4cccc(c14)N3)N2 | 65.5 | > 100 |
| CN1C(C(=O)NCc2ccc(OC(F)(F)F)cc2)CC2Cn3c(nc4cc(Cl)c(Cl)cc43)C21 (stereo not drawn) | 39.8 | 55.6 |
| COc1ccccc1-n1cc2c([N+](=O)[O-])cc([N+](=O)[O-])cc2n1 | < 0.2 | 3.18 |
| S=c1nc[nH]c2nc[nH]c12 | 3.08 | 3.43 |
| CCCc1cc(=O)n2[nH]c(C)c(-c3ccc(Cl)cc3)c2n1 | 6.8 | 18.1 |
| COc1ccc(C)c2sc(N(CCN(C)C)C(=O)/C=C/c3cccs3)nc12 | 25.2 | 35.9 |
